In patent publication US5753240A, “Fluorinated compounds and compositions comprising them” (L'Oreal, priority 1994, dated 1998):

Assays:
Type in all cases: physicochemical
[1] = Thickening effect of Example 1 on various vehicles: Perhydrosqualene; details: 0.2% in Perhydrosqualene
Method: (§1) The thickening of the medium can be carried out by completely dissolving the fluorinated compound of formula I, at a temperature ranging from 20° C. to 80° C., and then by allowing the mixture to stand until it is completely thickened.
(§2) Thickening effect of Example 1 on various vehicles
(§3) Gelled media were thus obtained.

[2] = Thickening effect of Example 1 on various vehicles: Petroleum jelly; details: 0.2% in Petroleum jelly
Method: as §1, §2, §3

[3] = Thickening effect of Example 1 on various vehicles: Sunflower oil; details: 0.2% in Sunflower oil
Method: as §1, §2
(§4) As is evident, Sunflower refers to Sunflower oil and Parleam refers to Parleam oil. Eutanol G is a tradename for octyldodecanol and is manufactured by Henkel.
as §3

[4] = Thickening effect of Example 1 on various vehicles: Parleam oil; details: 0.2% in Parleam oil
Method: as §1, §2, §4, §3

[5] = Thickening effect of Example 1 on various vehicles: Olive oil; details: 0.2% in Olive oil
Method: as §1, §2, §3

[6] = Stability of the thickened (gelled) media over time; details: over a period of over 6 months
Description: as §3

CCCCCCCCCCCCCCCCOC(=O)NCCCCCCCCCCC(=O)OCCC(F)(F)C(F)(F)C(F)(F)C(F)(F)C(F)(F)C(F)(F)C(F)(F)C(F)(F)F [Example 1, 2-(F-octyl)ethyl 11-(N-hexadecyloxycarbonyl)aminoundecanoate]
Thickening effect [1]: no effect
Thickening effect [2]: no effect
Thickening effect [3]: no effect
Thickening effect [4]: no effect
Thickening effect [5]: no effect
Stability of thickened media [6]: perfect stability
